# Like-named read-outs stand apart in the source and are kept apart here.
# How the values were obtained:
# [1] = tested on: human myeloid leukemic cell lines; conditions: cited from earlier work
# [2] = tested on: unstimulated HPBL; assay: PCC induction (PCC index) in unstimulated HPBL; type: cell-based, human; conditions: cell culture medium containing OA alone, no mitogen
# Method: (§1) PCC spreads may be prepared according to standard cytogenetic procedures directly after the indicated treatment. Briefly, cells may be treated with a hypotonic potassium chloride (0.075 M) solution for 5 minutes and fixed in acetic: methanol (1:3) fixative. Fixed cells may be dropped onto acid cleaned glass slides.
# (§2) To directly visualize the spread chromosomes, the slides may be stained. Suitable stains are known to those of skill in the art, for example, a 4% aqueous solution of Giemsa stain may be used for observation under a light microscope. Coded slides can be analyzed under 1000×magnification. Cells with condensed chromatin material displaying at least partial separation of chromosomes are scored as PCC spreads.
# (§3) The PCC index may be determined as follows. [formula]
# (§4) The HPBL were treated with OA at concentrations ranging from 0.25 to 1 μM in a cell culture medium containing 100 μM ATP and incubated at 37° C. for varying durations of up to 24 hours. Slides were prepared and PCC index was determined as explained above.
# In the following working example of the present invention, PCC induction in unstimulated HPBL was accomplished by the addition of p34^cdc2/cyclin B kinase to the complete media supplemented with ATP (100 μM) containing OA (0.75 μM) and incubation for three hours at 37° C. […]
# [3] = tested on: mitogen-stimulated HPBL; assay: PCC induction (PCC index) by OA in mitogen-stimulated HPBL; type: cell-based, human
# Method: as §1, §2, §3
# HPBLs prepared as described above may be incubated in cell culture medium supplemented with an energy source. In order to determine the optimal OA concentration and duration of incubation for PCC, phytohemagglutinin (PHA, 10 μg/ml; Murex Diagnostics) was subsequently added to the medium to stimulate proliferation.
# as §4
smiles,measurement,setting,value
"C=C1[C@@H](O)[C@@H]2O[C@]3(CC[C@H](/C=C/[C@@H](C)[C@@H]4CC(C)=C[C@@]5(O[C@H](C[C@@](C)(O)C(=O)O)CC[C@H]5O)O4)O3)CC[C@H]2O[C@@H]1[C@@H](O)C[C@H](C)[C@H]1O[C@@]2(CCCCO2)CC[C@H]1C [OA, okadaic acid]",phase of cell-cycle arrest,[1]; higher PCC inducible concentrations (above 0.5 μM),G1-S-phase
same,phase of cell-cycle arrest,[1]; lower concentrations,G2-M phase
same,PCC induction,[2],did not result in PCC induction
same,PCC levels determined by PCC index compared with controls,"[3]; OA 0.25 μM, within 1 hour, p<0.01, Student's t-test",significant
same,cytostatic effect,[3]; OA 0.75 μM,not cytostatic
same,"PCC index, maximum","[3]; OA 1 μM, 8 hours, PHA 10 μg/ml, 100 μM ATP, 37° C.",61%
same,quality of PCC spreads,"[3]; prolonged treatment with higher concentrations of OA, possibly due to toxicity",poor spread quality
